Values quoted from earlier work as cited in publication PMC6245954 (European journal of medicinal chemistry, 2018).

Key:
[1] = in words; cited from earlier work
[2] = test system: two prostate cancer xenografts; settings: even at the highest dose (0.73 mmol/kg); cited from earlier work
[3] = test system: prostate cancer; settings: cited from earlier work

## COc1cc(-c2oc3ccccc3c(=O)c2O)cc(OC)c1OC [Compd 3, 3′,4′,5′-trimethoxyflavonol]
[1]
  bioavailability: poor bioavailability
[2]
  in vivo antitumor efficacy: very moderate
[3]
  fold greater potency than quercetin (1) and fisetin (2): 5- to 16 fold
